Measurements reported in publication PMC8708274, “Unveiling the Membrane and Cell Wall Action of Antimicrobial Cyclic Lipopeptides: Modulation of the Spectrum of Activity” (Pharmaceutics, 2021).
Where two headings read alike, the source gives them in different places. Positions of bridges follow the written chain, without caps; N, C: chain ends. Non-standard residues stand in square brackets, D forms with d. Residues, ends and D or L forms follow the SMILES beside them. *: point of attachment. dAoc(2) = CCCCCC[C@@H](N)C(=O)O; Heptanoyl = CCCCCCC(=O)*; Nle = CCCC[C@H](N)C(=O)O; Dab = NCC[C@H](N)C(=O)O

What was measured:
[1] = test system: Escherichia coli ATTC 25922; type: cell-based
[2] = test system: Pseudomonas aeruginosa ATTC 27853; type: cell-based
[3] = test system: Staphylococcus aureus ATTC 25923; type: cell-based
[4] = Kinetics of insertion into monolayers; type: binding, Salmonella enterica serotype Minnesota Re 595; conditions: initial pressure 32 mN·m^−1, peptide 0.48 μM, 25 min after injection, 10 mM Tris pH 7.4, 25 °C, average of three independent experiments (error < 10%)
[5] = Kinetics of insertion into monolayers; type: binding; conditions: 25 min after injection, 10 mM Tris pH 7.4, 25 °C, average of three independent experiments (error < 10%)
ANTS/DPX vesicle leakage = conditions: 0.9 µM peptide (0.8% peptide mol fraction), lipid 107 µM, 25 °C, 10 mM Tris pH 7.4, ANTS fluorescence
Description: Large unilamellar vesicles (LUVs) of POPG, POPE/POPG (6:4), or POPC, alone or with the fluorescently labeled phospholipids NBD-PE or Rh-PE, were prepared by the evaporation of a mixture of the lipids and probes in CHCl3. The solvent was removed by a gentle stream of nitrogen gas followed by overnight storage under vacuum. The dried films were hydrated with Tris 10 mM pH 7.4 to the desired final lipid concentration and then sonicated in a bath type sonicator (Lab Supplies, Hickesville, NY, Model G112SPIT) until a clear dispersion was obtained (typically 3–5 min). […] The average diameter was determined by dynamic light scattering with a Malvern II-C Autosizer, with a z-diameter between 111 and 117 nm, and a polydispersity of 0.1. […] Moreover, they contained 0.2% Rh-PE for monitoring the fluorescence before and after the separation of the unencapsulated material, which was carried out by gel filtration on a Sephadex G-50 column eluted with 10 mM Tris 80 mM NaCl. In this way, the final lipid concentration was calculated taking into account the loss of lipid and the dilution of the sample.
To assess the leakage of co-encapsulated ANTS and DPX vesicles due to their interaction with peptides, fluorescence measurements were carried out at 25 °C in 1.5 mL 10 mM Tris buffer pH 7.4 on a SLM-Aminco AB-2 spectrofluorimeter with constant stirring. […]

P. aeruginosa = assay: Transmission electron microscopy of treated bacteria; type: cell-based, Pseudomonas aeruginosa; conditions: 1xMIC, 2 h, room temperature, tryptone water
Description: (§1) Then, 500 µL of this culture were added to 50 mL of tryptone water for a concentration of ≈10^8 bacteria·mL^−1. Aliquots of 10 mL were incubated with the lipopeptide at the desired concentration for 2 h at room temperature, and bacterial cells were collected by centrifugation (12,857 g, 20 min). Samples were fixed with 2.5% glutaraldehyde in phosphate buffer for 2 h at 4 °C, washed with the same buffer, and post fixed with 1% osmium tetroxide in buffer containing 0.8% potassium ferricyanide at 4 °C. Then, the samples were dehydrated for 1 h in acetone, infiltrated in a graded series of Epon resin (Ted pella, Inc., Redding, CA, USA) during 2 days, and finally embedded in fresh Epon resin and polymerized at 60 °C during 48 h. Ultrathin sections were obtained using a Leica Ultracut UCT ultramicrotome (Leica, Vienna, Austria) and mounted on Formvar-coated copper grids. Sections were stained with 2% aqueous uranyl acetate and lead citrate and examined in a JEM-1010 electron microscope (Jeol, Tokyo, Japan).

E. coli = assay: as above; type: cell-based, Escherichia coli; conditions: 1xMIC, 2 h, room temperature, tryptone water
Description: as §1

[6] = broth microdilution, MHB, 5 × 10^5 CFU/mL, overnight 37 °C, triplicate, higher of the three

## CCCCCCC(=O)N[C@@H](CCN)C(=O)N[C@H](C(=O)N[C@@H](CCN)C(=O)N[C@H]1CSSC[C@H](C(N)=O)NC(=O)[C@H](CCN)NC(=O)[C@H](CCN)NC(=O)[C@H](CCCC)NC(=O)[C@@H](CCCCCC)NC(=O)[C@H](CCN)NC1=O)[C@@H](C)O [spE-10] (Heptanoyl-[Dab]T[Dab]C[Dab][dAoc(2)][Nle][Dab][Dab][dC]-NH2; disulfide 4-10)
[1]; ATTC 25922
  MIC EC: 6.7 µM
[1]; [6]
  MIC EC: 8 µg/mL
[2]; ATTC 27853
  MIC PA: 0.84 µM
[2]; [6]
  MIC PA: 1 µg/mL
[3]; ATTC 25923
  MIC SA: > 27 µM
[3]; [6]
  MIC SA: > 32 µg/mL
[4]
  Increase in surface pressure (Δπ), LPS: 14.8 mN·m^−1
[5]; POPE/POPG 6:4, initial pressure 32 mN·m^−1, peptide 0.48 μM
  Increase in surface pressure (Δπ), POPE/POPG: 8.2 mN·m^−1
[5]; initial pressure 32 mN·m^−1, peptide 0.48 μM
  Increase in surface pressure (Δπ), POPC: 1.8 mN·m^−1
ANTS/DPX vesicle leakage
  leakage from PE/PG vesicles: no detectable leakage
P. aeruginosa
  ultrastructural effect on P. aeruginosa (TEM): significant rupture of the cell membranes and cytoplasmic clear zones
E. coli
  ultrastructural effect on E. coli (TEM): formation of intracellular membranous structures and cytoplasmic clear zones
